Values after ≈ are worked out from the molar mass of the structure shown.
Tested on: Enterococcus faecalis
Test: Antibacterial activity against Enterococcus faecalis assessed as inhibition of bacterial growth
Assay type: functional

MIC: 8 µg/mL (≈ 17.3 µM)
SMILES: O=C1Nc2cc(Cl)c(F)cc2/C1=N\NC(=O)c1cc(-c2cccc(Br)c2)n[nH]1
